Test results published in patent US20060135483A1, “Oxygen/nitrogen heterocycle inhibitors of tyrosine phosphatases” (priority 2004, published 2006).
pIC50: −log10 of the molar value.

Columns and labels:
PTP-1B = molecular target: T1, PTP-1B (Homo sapiens, UniProt P18031); assay: pNPP assay for tyrosine phosphatase inhibitory activity; type: biochemical; settings: Table 2; pNPP substrate 10 mM, 30° C., 10 minutes, absorbance at 405 nm
T1 construct: PTP-1B (purified, 1 mg/mL) as a 1:250 dilution
T1 sequence (P18031 1-321 limits assumed): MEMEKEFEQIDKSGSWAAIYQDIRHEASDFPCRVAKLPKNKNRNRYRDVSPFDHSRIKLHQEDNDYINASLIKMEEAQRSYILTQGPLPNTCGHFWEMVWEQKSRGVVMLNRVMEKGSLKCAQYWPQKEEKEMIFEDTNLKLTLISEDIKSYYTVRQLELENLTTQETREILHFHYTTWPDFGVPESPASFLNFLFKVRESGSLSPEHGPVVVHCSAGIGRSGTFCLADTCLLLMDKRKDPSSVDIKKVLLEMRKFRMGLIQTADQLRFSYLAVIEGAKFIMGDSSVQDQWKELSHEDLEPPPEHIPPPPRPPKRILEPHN
Experimental: The compounds provided herein are evaluated for biological activity as inhibitors of PTP-1B using, for example, a pNPP assay. Such an assay can be used to screen compounds for tyrosine phosphatase inhibitory activity as shown in Example 39.
A 5× stock of pNPP (p-nitrophenol phosphate) substrate is prepared as 50 mM pNPP in assay buffer. Various tyrosine phosphatase solutions can be prepared as follows: • PTP-1B (purified, 1 mg/mL) as a 1:250 dilution (to a final concentration of 4:g/mL); • TC-PTP (NEB, 1000 units in 100:L) as a 1:50 dilution (to a final concentration of 2 U/10:L (4:g/mL)); • CD45 (Calbiochem, 20:g, 400 units in 100: L) as a 1 :50 dilution (to a final concentration of 0.8 U/10:L (4:g/mL)); • LAR (NEB, 1000 units in 200:L) as a 1:75 dilution (to a final concentration of 0.7 U/10:L (4:g/mL)); and • PTP-β (UBI, #14-350, 10,000 units, 40:g/571:L) as a 1:17.5 dilution (to a final concentration of 10 U/10:L (4:g/mL));
The compound to be tested is prepared as 1:16.7 and 1:50 dilutions from stock in a total volume of 1 00:M DMSO to give final concentrations of 626 and 200:M. The reaction mixtures are prepared in a 96-well microtiter plate (on ice) as 55:L assay buffer, 5:L of the diluted compound (to a final concentration of 31.3 and 10:M), 20:L of the pNPP substrate solution (to a final concentration of 10 mM) and 20:L PTPase in assay buffer. The reactants are mixed well, the plate placed in a water bath at 30° C. and incubated for 10 minutes. The reaction is then terminated by adding 1 OO:L of 2M K2CO3 per well, and the absorbance is measured at 405 nm by conventional means.
Unless otherwise indicated, this assay was used to determine activity for the selected compounds whose activity is recorded in Table 1 and Table 2.

**Q.** Which melting point does the source give for `CS(=O)(=O)c1ccc(-c2cnc(N(Cc3ccc(C(F)(F)P(=O)(O)O)c(Cl)c3)c3ccc(Cl)c(Cl)c3)o2)cc1` [Example 31, {[2-Chloro-4-({(3,4-dichloro-phenyl)-[5-(4-methanesulfonyl-phenyl)-oxazol-2-yl]-amino}-methyl)-phenyl]-difluoro-methyl}-phosphonic acid] here?
**A.** Its melting point is 141 to 143 °C.

**Q.** And the pIC50 (PTP-1B)?
**A.** Its pIC50 is 6.30 to 7.00.

**Q.** With `CC(C)OC(=O)OC(C)OP(=O)(O)C(F)(F)c1ccc(CN(c2ccc(F)cc2)c2ncc(-c3ccc(S(C)(=O)=O)cc3)o2)cc1Br` (centres unmarked) [{[2-Bromo-4-({(4-fluoro-phenyl)-[5-(4-methanesulfonyl-phenyl)-oxazol-2-yl]-amino}-methyl)-phenyl]-difluoro-methyl}-phosphonic acid mono-(1-isopropoxycarbonyloxy-ethyl) ester] as the compound, how does the pIC50 (PTP-1B) read?
**A.** Its pIC50 is 4.00 to 5.00.

**Q.** With `CCCCCCCCCCCCCCCCOCCCOP(=O)(O)C(F)(F)c1ccc(CN(c2ccc(F)cc2)c2ncc(-c3ccc(S(C)(=O)=O)cc3)o2)cc1Br` [{[2-Bromo-4-({(4-fluoro-phenyl)-[5-(4-methanesulfonyl-phenyl)-oxazol-2-yl]-amino}-methyl)-phenyl]-difluoro-methyl}-phosphonic acid mono-(3-hexadecyloxy-propyl) ester] as the compound, how does the pIC50 (PTP-1B) read?
**A.** Its pIC50 is 5.00 to 6.00.

**Q.** With `CS(=O)(=O)c1ccc(-c2cnc(N(Cc3ccc(C(F)(F)P(=O)(O)Oc4ccccc4)c(Br)c3)c3ccc(F)cc3)o2)cc1` [{[2-Bromo-4-({(4-fluoro-phenyl)-[5-(4-methanesulfonyl-phenyl)-oxazol-2-yl]-amino}-methyl)-phenyl]-difluoro-methyl}-phosphonic acid monophenyl ester] as the compound, how does the pIC50 (PTP-1B) read?
**A.** The pIC50 was 4.00 to 5.00.

**Q.** With `CS(=O)(=O)c1ccc(CN(Cc2ccc(C(F)(F)P(=O)(O)O)c(Br)c2)c2ncc(-c3ccc(S(C)(=O)=O)cc3)o2)cc1` [{[2-Bromo-4-({(4-methanesulfonyl-benzyl)-[5-(4-methanesulfonyl-phenyl)-oxazol-2-yl]-amino}-methyl)-phenyl]-difluoro-methyl}-phosphonic acid] as the compound, how does the pIC50 (PTP-1B) read?
**A.** The pIC50 was 6.00 to 6.30.

**Q.** With `CS(=O)(=O)c1ccc(-c2cnc(N(Cc3ccc(C(F)(F)P(=O)(O)O)c(Cl)c3)c3ccc(F)cc3)o2)cc1` [{[2-Chloro-4-({(4-fluoro-phenyl)-[5-(4-methanesulfonyl-phenyl)-oxazol-2-yl]-amino}-methyl)-phenyl]-difluoro-methyl}-phosphonic acid] as the compound, how does the pIC50 (PTP-1B) read?
**A.** The pIC50 was 6.30 to 7.00.

**Q.** With `CS(=O)(=O)c1ccc(-c2cnc(N(Cc3ccc(C(F)(F)P(=O)(O)O)c(Cl)c3)c3ccccc3)o2)cc1` [{[2-Chloro-4-({(5-(4-methanesulfonyl-phenyl)-oxazol-2-yl]-phenyl-amino}-methyl)-phenyl]-difluoro-methyl}-phosphonic acid] as the compound, how does the pIC50 (PTP-1B) read?
**A.** Its pIC50 is 6.30 to 7.00.
